Here are results for 1 compound from patent US9776992B2, “1-oxo-1,2-dihydroisoquinolin-7-yl-(5-substituted-thiophen-2-yl)-sulfonamide compounds, formulations containing those compounds, and their use as AICARFT inhibitors in the treatment of cancers” (Eli Lilly and Company, priority 2014, dated 2017).

The experiment deals with human colorectal adenocarcinoma cell line HCT-116 mouse xenograft. Put plainly: Antitumor efficacy in HCT-116 mouse xenograft tumor model. The note with it: for % T/C: HCT-116 xenograft, Day 23, Delta T/C, * = P<0.05. The experiment is classed as in vivo. On the procedure: In vivo studies are performed using female athymic nude mice (Harlan) with a bodyweight of 23-28 g at first measurement. Upon receipt and throughout the study, the animals are housed 5 animals per cage in appropriately sized solid-bottom cages with contact bedding. The animal room is maintained on a 12-hour light/dark cycle. Animals are acclimated for 14 days prior to implantation of the NCI-H460 or HCT-116 cells on low folate diet (Teklad 130451) ad libitum and autoclaved tap water is provided ad libitum. The HCT-116 and NCI-H460 cell line are obtained from American Type Culture Collection (ATCC) and is cultured following ATCC instructions. Cells used for implantation are harvested during log phase growth and suspended in serum-free media. The suspended cells are then diluted 1:1 with BD Matrigel Matrix (ref 354234). Cells are injected in the right flank with 5.0E+06 cells (0.2 mL cell/Matrigel suspension). Tumors are monitored beginning day 8 post implant. Animals are redistributed into groups with 5-6 animals per group utilizing proprietary randomization software when average tumor volume reaches 200 mm^3. Groups 1-12 are maintained on a low folate diet (Teklad 130451) and folic acid (Sigma F8798 Lot #SLBH0909V) administration at doses listed in the Table 19 began 28 hours prior to dose initiation and 4 hours prior to each dose. Folic acid is formulated weekly in PBS and dosed via oral gavage at 0.2 mL. Groups 13-16 are placed on standard chow (Teklad 2920X) at randomization. The compound is formulated weekly in 20% HPBCD in Phosphate buffer pH 8 with one molar equivalent NaOH added. The formulated compound is administered at the doses and schedules indicated in Table 19 by oral gavage (0.2 mL). The vehicle is also given QD as the control arm of the study. Tumor volume and body weight are measured 2× a week. Tumor volume is determined by caliper measurements (mm) and using the formula for an ellipsoid sphere: tumor volume (mm^3)=length×width^2/2, where length and width refer to the larger and smaller perpendicular dimensions collected at each measurement. The animal behavior and animal health are monitored daily during dosing period.
The statistical analysis of the tumor volume data begins with a data transformation to a log scale to equalize variance across time and treatment groups. The log volume data are analyzed with a two-way repeated measures analysis of variance by time and treatment using the MIXED procedures in SAS software (Version 9.3). The correlation model for the repeated measures is Spatial Power. Treated groups are compared to the control group at each time point. The MIXED procedure is also used separately for each treatment group to calculate adjusted means and standard errors at each time point. Both analyses account for the autocorrelation within each animal and the loss of data that occurs when animals with large tumors are removed from the study early. The adjusted means and standard errors are plotted for each treatment group vs time. The analysis comparing the treated groups to the control groups at each time point uses the log 10 tumor volumes and produces the p-values. For statistical significance of p-values shown, “*”=P<0.05.
Delta T/C, % calculation is used. Equations: T=Final tumor volume in treated group; T0=Baseline tumor volume in treated group (assumed to be same as C0); C=Final tumor volume in control group; C0=Baseline tumor volume in control group (assumed to be same as T0); Delta T/C, %=100*(T−T0)/(C−C0)

Each structure is given as a SMILES string.

`O=c1[nH]ccc2cc(F)c(NS(=O)(=O)c3ccc(N4CC[C@@H](O)C4)s3)cc12` [Example 1, N-(6-Fluoro-1-oxo-1,2-dihydroisoquinolin-7-yl)-5-[(3R)-3-hydroxypyrrolidin-1-yl]thiophene-2-sulfonamide]: the “in vivo anticancer activity (in words)” value (HCT-116 xenograft tumors, QD continuously for 2 weeks) was “demonstrates in vivo anticancer activity”. Moreover, the “% T/C” value is, setting by setting: (Group 6, low folate diet, folic acid 0.75 mg/kg (QD × 15, orally), 10 mg/kg QD × 14, orally) 65* %; (Group 7, low folate diet, folic acid 0.75 mg/kg (QD × 15, orally), 30 mg/kg QD × 14, orally) 57* %; (Group 14, standard chow, no folic acid, 10 mg/kg QD × 14, orally) 112%; (Group 15, standard chow, no folic acid, 30 mg/kg QD × 14, orally) 49%.
